Measured values taken from publication PMC5778071, “Development of matrix metalloproteinase-targeted probes for lung inflammation detection with positron emission tomography” (Scientific Reports, 2018).

Tests used:
Type in all cases: biochemical
recombinant human MMP-2 = biological target: T1, recombinant human MMP-2 (Homo sapiens, UniProt P08253); test: Competitive fluorogenic enzyme activity assay, MMP-2; settings: fluorogenic substrate 5 μM, 5 nM enzyme, 30 min; read-out: IC50 toward MMP-2
T1 construct: purchased Anaspec Inc. AS72005
T1 sequence (P08253 110-660): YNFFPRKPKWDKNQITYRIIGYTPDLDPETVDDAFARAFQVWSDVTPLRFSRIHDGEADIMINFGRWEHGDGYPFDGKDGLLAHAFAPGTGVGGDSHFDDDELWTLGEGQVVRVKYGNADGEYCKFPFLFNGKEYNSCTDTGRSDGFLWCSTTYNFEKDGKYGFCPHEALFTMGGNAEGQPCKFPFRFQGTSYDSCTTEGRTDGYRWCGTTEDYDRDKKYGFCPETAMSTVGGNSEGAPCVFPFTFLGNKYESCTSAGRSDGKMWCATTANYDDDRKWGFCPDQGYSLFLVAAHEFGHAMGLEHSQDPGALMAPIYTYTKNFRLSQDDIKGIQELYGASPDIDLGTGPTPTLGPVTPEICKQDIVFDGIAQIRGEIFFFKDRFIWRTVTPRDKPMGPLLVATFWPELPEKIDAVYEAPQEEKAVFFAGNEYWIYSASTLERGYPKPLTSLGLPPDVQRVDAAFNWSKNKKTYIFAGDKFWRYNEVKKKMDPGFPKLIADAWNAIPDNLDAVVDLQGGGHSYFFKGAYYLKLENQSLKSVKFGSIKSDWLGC
Experimental: (§1) Determination of the IC50 toward human MMP-2, MMP-9, MMP-12 and MMP-13 was performed by a competitive enzyme activity assay according to a literature procedure. The assay was performed by incubating 5 μM of the synthesized fluorogenic peptide substrate Mca-Pro-Leu-Gly-Leu-Dpa(Dnp)-Ala-Arg-NH2 with 5 nM recombinant human MMP-2 (AS72005, Anaspec Inc., CA, USA), MMP-9 (911-MP, R&D Systems, MN, USA), MMP-12 (917-MP, R&D Systems) and MMP-13 (AS72011, Anaspec) along with various concentrations of ML5, I-ML5, PFB, PFP, IPFB, and IPFP (0.2–365 nM) in a buffer (pH 7.5, 50 mM tris(hydroxymethyl)aminomethane, 10 mM calcium chloride, 150 mM sodium chloride, and 0.01% Brij-35) containing 5% dimethyl sulfoxide. The increase in fluorescence over time was measured using a SpectraMax M2e microplate reader (Molecular Devices Inc., CA, USA) with an excitation wavelength of 325 nm and an emission wavelength of 395 nm. The fluorescence intensity after 30 min was plotted as a function of the concentration of each of the compounds on a logarithmic scale to produce an inhibition curve that was subsequently fit with a sigmoidal function by a least squares method. The IC50 values were calculated from the inhibition curves using GraphPad Prism 6 (GraphPad Software, Inc., CA, USA).

recombinant human MMP-9 = biological target: T2, recombinant human MMP-9 (Homo sapiens, UniProt P14780); test: Competitive fluorogenic enzyme activity assay, MMP-9; settings: fluorogenic substrate 5 μM, 5 nM enzyme, 30 min; read-out: IC50 toward MMP-9
T2 construct: purchased R&D Systems 911-MP
Experimental: as §1

recombinant human MMP-12 = biological target: T3, recombinant human MMP-12 (Homo sapiens, UniProt P39900); test: Competitive fluorogenic enzyme activity assay, MMP-12; settings: for IC50: fluorogenic substrate 5 μM, 5 nM enzyme, 30 min, read-out: IC50 toward MMP-12
T3 construct: purchased R&D Systems 917-MP
Experimental: Determination of the IC50 toward human MMP-2, MMP-9, MMP-12 and MMP-13 was performed by a competitive enzyme activity assay according to a literature procedure. […] The increase in fluorescence over time was measured using a SpectraMax M2e microplate reader (Molecular Devices Inc., CA, USA) with an excitation wavelength of 325 nm and an emission wavelength of 395 nm. The fluorescence intensity after 30 min was plotted as a function of the concentration of each of the compounds on a logarithmic scale to produce an inhibition curve that was subsequently fit with a sigmoidal function by a least squares method. The IC50 values were calculated from the inhibition curves using GraphPad Prism 6 (GraphPad Software, Inc., CA, USA).

recombinant human MMP-13 = biological target: T4, recombinant human MMP-13 (Homo sapiens, UniProt P45452); test: Competitive fluorogenic enzyme activity assay, MMP-13; settings: fluorogenic substrate 5 μM, 5 nM enzyme, 30 min; read-out: IC50 toward MMP-13
T4 construct: purchased Anaspec AS72011
Experimental: as §1

T2 sequence (P14780 94-707): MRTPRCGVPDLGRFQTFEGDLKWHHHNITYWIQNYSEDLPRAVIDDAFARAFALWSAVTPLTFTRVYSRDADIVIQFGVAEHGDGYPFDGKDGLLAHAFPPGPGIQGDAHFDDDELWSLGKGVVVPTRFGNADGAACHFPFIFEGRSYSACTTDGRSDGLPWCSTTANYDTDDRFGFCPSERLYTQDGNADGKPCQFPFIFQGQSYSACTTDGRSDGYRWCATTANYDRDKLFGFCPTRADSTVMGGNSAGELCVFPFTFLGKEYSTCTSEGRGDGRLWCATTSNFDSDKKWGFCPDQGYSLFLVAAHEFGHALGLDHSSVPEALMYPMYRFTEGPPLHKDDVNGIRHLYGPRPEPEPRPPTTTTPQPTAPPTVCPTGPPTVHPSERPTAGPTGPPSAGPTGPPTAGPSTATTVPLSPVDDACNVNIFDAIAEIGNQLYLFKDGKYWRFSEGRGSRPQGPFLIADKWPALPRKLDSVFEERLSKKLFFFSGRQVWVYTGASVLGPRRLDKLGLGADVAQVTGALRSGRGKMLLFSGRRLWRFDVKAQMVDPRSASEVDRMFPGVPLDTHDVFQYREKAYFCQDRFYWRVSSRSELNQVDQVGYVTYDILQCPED
T3 sequence (P39900 106-470): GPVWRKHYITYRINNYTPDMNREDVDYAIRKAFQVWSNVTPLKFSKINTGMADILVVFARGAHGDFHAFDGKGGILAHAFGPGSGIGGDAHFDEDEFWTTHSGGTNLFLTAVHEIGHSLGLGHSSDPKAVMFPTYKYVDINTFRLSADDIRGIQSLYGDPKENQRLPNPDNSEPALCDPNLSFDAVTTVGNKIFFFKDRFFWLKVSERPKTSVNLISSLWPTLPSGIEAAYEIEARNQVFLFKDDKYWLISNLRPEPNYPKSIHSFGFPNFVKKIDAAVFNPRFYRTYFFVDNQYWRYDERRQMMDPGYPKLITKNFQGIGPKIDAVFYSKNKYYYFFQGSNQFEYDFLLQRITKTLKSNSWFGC

SMILES | IC50 (recombinant human MMP-2) | IC50 (recombinant human MMP-9) | IC50 (recombinant human MMP-12) | IC50 (recombinant human MMP-13) | inverse IC50 ratio (selectivity toward MMP-12) relative to MMP-2 (recombinant human MMP-12; MMP-12 vs MMP-2) | inverse IC50 ratio (selectivity toward MMP-12) relative to MMP-9 (recombinant human MMP-12; MMP-12 vs MMP-9) | inverse IC50 ratio (selectivity toward MMP-12) relative to MMP-13 (recombinant human MMP-12; MMP-12 vs MMP-13)
CC(C)C[C@H](CC(=O)NO)C(=O)N[C@@H](Cc1ccc(I)cc1)C(=O)N[C@@H](CCCCN)C(N)=O [I-ML5] | 3.7 ± 1 nM | 13.8 ± 1.5 nM | 2.3 ± 1.1 nM | 11.8 ± 6.3 nM | – | – | –
CC(C)C[C@H](CC(=O)NO)C(=O)N[C@@H](Cc1ccccc1)C(=O)N[C@@H](CCCCNC(=O)c1ccc(F)cc1)C(N)=O [PFB] | 77.7 ± 4 nM | 178 ± 24.2 nM | 24.2 ± 14.1 nM | 66.1 ± 26.1 nM | – | – | –
CC(C)C[C@H](CC(=O)NO)C(=O)N[C@@H](Cc1ccc(I)cc1)C(=O)N[C@@H](CCCCNC(=O)c1ccc(F)cc1)C(N)=O [IPFB] | 29.1 ± 9.3 nM | 148 ± 30.6 nM | 12.3 ± 4 nM | 44.5 ± 21.6 nM | – | – | –

Next, values leading:

IC50 (recombinant human MMP-2) | IC50 (recombinant human MMP-9) | IC50 (recombinant human MMP-12) | IC50 (recombinant human MMP-13) | inverse IC50 ratio (selectivity toward MMP-12) relative to MMP-2 (recombinant human MMP-12; MMP-12 vs MMP-2) | inverse IC50 ratio (selectivity toward MMP-12) relative to MMP-9 (recombinant human MMP-12; MMP-12 vs MMP-9) | inverse IC50 ratio (selectivity toward MMP-12) relative to MMP-13 (recombinant human MMP-12; MMP-12 vs MMP-13) | SMILES
4.4 ± 2.3 nM | 8.1 ± 2 nM | 1.5 ± 0.8 nM | 4.1 ± 1.7 nM | 2.9 | 5.4 | 2.7 | CC(C)C[C@H](CC(=O)NO)C(=O)N[C@@H](Cc1ccc(I)cc1)C(=O)N[C@@H](CCCCNC(=O)C(C)F)C(N)=O (stereo partly drawn) [IPFP]
– | – | 1.5 nM | – | – | – | – | CC(C)C[C@H](CC(=O)NO)C(=O)N[C@@H](Cc1ccc(I)cc1)C(=O)N[C@@H](CCCCNC(=O)C(C)F)C(N)=O (stereo partly drawn) [^18F-IPFP]
12.5 ± 7.1 nM | 54.1 ± 38.3 nM | 4.5 ± 2.5 nM | 11.1 ± 6.6 nM | – | – | – | CC(C)C[C@H](CC(=O)NO)C(=O)N[C@@H](Cc1ccccc1)C(=O)N[C@@H](CCCCNC(=O)C(C)F)C(N)=O (stereo partly drawn) [PFP]
